Measured values from ChEMBL document CHEMBL4715697, “Synthesis and biological activity of benzamide DNA minor groove binders” (2016).

How the values were obtained:
Format in all cases: functional
Conditions in all cases: read-out: Activity
CCRF-CEM = assay: Growth inhibition of human CCRF-CEM cells assessed as cell growth at 10 uM incubated for 48 hrs by sulforhodamine B assay relative to control
HL-60(TB) = assay: Growth inhibition of human HL-60(TB) cells assessed as cell growth at 10 uM incubated for 48 hrs by sulforhodamine B assay relative to control
K562 = assay: Growth inhibition of human K562 cells assessed as cell growth at 10 uM incubated for 48 hrs by sulforhodamine B assay relative to control
MOLT-4 = assay: Growth inhibition of human MOLT-4 cells assessed as cell growth at 10 uM incubated for 48 hrs by sulforhodamine B assay relative to control
RPMI-8226 = assay: Growth inhibition of human RPMI-8226 cells assessed as cell growth at 10 uM incubated for 48 hrs by sulforhodamine B assay relative to control
SR = assay: Growth inhibition of human SR cells assessed as cell growth at 10 uM incubated for 48 hrs by sulforhodamine B assay relative to control
EKVX = assay: Growth inhibition of human EKVX cells assessed as cell growth at 10 uM incubated for 48 hrs by sulforhodamine B assay relative to control
HOP-62 = assay: Growth inhibition of human HOP-62 cells assessed as cell growth at 10 uM incubated for 48 hrs by sulforhodamine B assay relative to control
NCI-H226 = assay: Growth inhibition of human NCI-H226 cells assessed as cell growth at 10 uM incubated for 48 hrs by sulforhodamine B assay relative to control
NCI-H23 = assay: Growth inhibition of human NCI-H23 cells assessed as cell growth at 10 uM incubated for 48 hrs by sulforhodamine B assay relative to control
NCI-H322M = assay: Growth inhibition of human NCI-H322M cells assessed as cell growth at 10 uM incubated for 48 hrs by sulforhodamine B assay relative to control
NCI-H460 = assay: Growth inhibition of human NCI-H460 cells assessed as cell growth at 10 uM incubated for 48 hrs by sulforhodamine B assay relative to control
NCI-H522 = assay: Growth inhibition of human NCI-H522 cells assessed as cell growth at 10 uM incubated for 48 hrs by sulforhodamine B assay relative to control
HCC 2998 = assay: Growth inhibition of human HCC 2998 cells assessed as cell growth at 10 uM incubated for 48 hrs by sulforhodamine B assay relative to control
HCT-15 = assay: Growth inhibition of human HCT-15 cells assessed as cell growth at 10 uM incubated for 48 hrs by sulforhodamine B assay relative to control
HT-29 = assay: Growth inhibition of human HT-29 cells assessed as cell growth at 10 uM incubated for 48 hrs by sulforhodamine B assay relative to control
KM12 = assay: Growth inhibition of human KM12 cells assessed as cell growth at 10 uM incubated for 48 hrs by sulforhodamine B assay relative to control
SF-268 = assay: Growth inhibition of human SF-268 cells assessed as cell growth at 10 uM incubated for 48 hrs by sulforhodamine B assay relative to control
SF-539 = assay: Growth inhibition of human SF-539 cells assessed as cell growth at 10 uM incubated for 48 hrs by sulforhodamine B assay relative to control
SNB-19 = assay: Growth inhibition of human SNB-19 cells assessed as cell growth at 10 uM incubated for 48 hrs by sulforhodamine B assay relative to control
SNB-75 = assay: Growth inhibition of human SNB-75 cells assessed as cell growth at 10 uM incubated for 48 hrs by sulforhodamine B assay relative to control
U-251 = assay: Growth inhibition of human U-251 cells assessed as cell growth at 10 uM incubated for 48 hrs by sulforhodamine B assay relative to control
Malme-3M = assay: Growth inhibition of human Malme-3M cells assessed as cell growth at 10 uM incubated for 48 hrs by sulforhodamine B assay relative to control
M14 = assay: Growth inhibition of human M14 cells assessed as cell growth at 10 uM incubated for 48 hrs by sulforhodamine B assay relative to control
MDA-MB-435 = assay: Growth inhibition of human MDA-MB-435 cells assessed as cell growth at 10 uM incubated for 48 hrs by sulforhodamine B assay relative to control
SK-MEL-2 = assay: Growth inhibition of human SK-MEL-2 cells assessed as cell growth at 10 uM incubated for 48 hrs by sulforhodamine B assay relative to control
SK-MEL-5 = assay: Growth inhibition of human SK-MEL-5 cells assessed as cell growth at 10 uM incubated for 48 hrs by sulforhodamine B assay relative to control
UACC-257 = assay: Growth inhibition of human UACC-257 cells assessed as cell growth at 10 uM incubated for 48 hrs by sulforhodamine B assay relative to control
UACC-62 = assay: Growth inhibition of human UACC-62 cells assessed as cell growth at 10 uM incubated for 48 hrs by sulforhodamine B assay relative to control
OVCAR-5 = assay: Growth inhibition of human OVCAR-5 cells assessed as cell growth at 10 uM incubated for 48 hrs by sulforhodamine B assay relative to control
NCI/ADR-RES = assay: Growth inhibition of human NCI/ADR-RES cells assessed as cell growth at 10 uM incubated for 48 hrs by sulforhodamine B assay relative to control
786-0 = assay: Growth inhibition of human 786-0 cells assessed as cell growth at 10 uM incubated for 48 hrs by sulforhodamine B assay relative to control
ACHN = assay: Growth inhibition of human ACHN cells assessed as cell growth at 10 uM incubated for 48 hrs by sulforhodamine B assay relative to control
CAKI-1 = assay: Growth inhibition of human CAKI-1 cells assessed as cell growth at 10 uM incubated for 48 hrs by sulforhodamine B assay relative to control
TK-10 = assay: Growth inhibition of human TK-10 cells assessed as cell growth at 10 uM incubated for 48 hrs by sulforhodamine B assay relative to control
UO-31 = assay: Growth inhibition of human UO-31 cells assessed as cell growth at 10 uM incubated for 48 hrs by sulforhodamine B assay relative to control
PC-3 = assay: Growth inhibition of human PC-3 cells assessed as cell growth at 10 uM incubated for 48 hrs by sulforhodamine B assay relative to control
DU-145 = assay: Growth inhibition of human DU-145 cells assessed as cell growth at 10 uM incubated for 48 hrs by sulforhodamine B assay relative to control
BT-549 = assay: Growth inhibition of human BT-549 cells assessed as cell growth at 10 uM incubated for 48 hrs by sulforhodamine B assay relative to control
T47D = assay: Growth inhibition of human T47D cells assessed as cell growth at 10 uM incubated for 48 hrs by sulforhodamine B assay relative to control

Compound | growth at 10 µM (CCRF-CEM) [%] | growth at 10 µM (HL-60(TB)) [%] | growth at 10 µM (K562) [%] | growth at 10 µM (MOLT-4) [%] | growth at 10 µM (RPMI-8226) [%] | growth at 10 µM (SR) [%] | growth at 10 µM (EKVX) [%] | growth at 10 µM (HOP-62) [%] | growth at 10 µM (NCI-H226) [%] | growth at 10 µM (NCI-H23) [%] | growth at 10 µM (NCI-H322M) [%] | growth at 10 µM (NCI-H460) [%] | growth at 10 µM (NCI-H522) [%] | growth at 10 µM (HCC 2998) [%] | growth at 10 µM (HCT-15) [%] | growth at 10 µM (HT-29) [%] | growth at 10 µM (KM12) [%] | growth at 10 µM (SF-268) [%] | growth at 10 µM (SF-539) [%] | growth at 10 µM (SNB-19) [%] | other results
CC(=O)Nc1cc(CO)cc(NC(=O)c2ccc(C(=O)NCCCN3CCOCC3)cc2)c1 | 94.9 | 107 | 103 | 94.4 | 95.3 | 94.1 | 115 | 105 | 95.6 | 100 | 105 | 111 | 91.1 | 100 | 103 | 115 | 113 | 109 | 97.3 | 107 | growth at 10 µM (SNB-75): 90.2%; growth at 10 µM (U-251): 99.5%; growth at 10 µM (Malme-3M): 106%; growth at 10 µM (M14): 98.9%; growth at 10 µM (MDA-MB-435): 103%; growth at 10 µM (SK-MEL-2): 94.3%; growth at 10 µM (SK-MEL-5): 102%; growth at 10 µM (UACC-257): 103%; growth at 10 µM (UACC-62): 101%; growth at 10 µM (OVCAR-5): 103%; growth at 10 µM (NCI/ADR-RES): 113%; growth at 10 µM (786-0): 101%; growth at 10 µM (ACHN): 108%; growth at 10 µM (CAKI-1): 109%; growth at 10 µM (TK-10): 91.9%; growth at 10 µM (UO-31): 100%; growth at 10 µM (PC-3): 100%; growth at 10 µM (DU-145): 113%; growth at 10 µM (BT-549): 94.2%; growth at 10 µM (T47D): 108%
CC(=O)Nc1cc(CO)cc(NC(=O)c2cccc(NC(=O)CCCN3CCOCC3)c2)c1 | 89.4 | 110 | 105 | 102 | 92.1 | 105 | 113 | 103 | 96.7 | 105 | 105 | 108 | 93.1 | 101 | 103 | 106 | 135 | 107 | 98.9 | 97.7 | growth at 10 µM (SNB-75): 102%; growth at 10 µM (U-251): 104%; growth at 10 µM (Malme-3M): 112%; growth at 10 µM (M14): 106%; growth at 10 µM (MDA-MB-435): 103%; growth at 10 µM (SK-MEL-2): 97.8%; growth at 10 µM (SK-MEL-5): 104%; growth at 10 µM (UACC-257): 107%; growth at 10 µM (UACC-62): 100%; growth at 10 µM (OVCAR-5): 101%; growth at 10 µM (NCI/ADR-RES): 107%; growth at 10 µM (786-0): 99.4%; growth at 10 µM (ACHN): 108%; growth at 10 µM (CAKI-1): 116%; growth at 10 µM (TK-10): 94%; growth at 10 µM (UO-31): 95.5%; growth at 10 µM (PC-3): 102%; growth at 10 µM (DU-145): 108%; growth at 10 µM (BT-549): 91.7%; growth at 10 µM (T47D): 96%
CC(=O)Nc1cc(CO)cc(NC(=O)c2ccc(C(=O)Nc3cc(CO)cc(NC(C)=O)c3)cc2)c1 | 87.4 | 107 | 106 | 101 | 94.5 | 106 | 115 | 102 | 94.9 | 103 | 103 | 107 | 94.1 | 99.6 | 104 | 107 | 136 | 115 | 99.6 | 102 | growth at 10 µM (SNB-75): 102%; growth at 10 µM (U-251): 112%; growth at 10 µM (Malme-3M): 113%; growth at 10 µM (M14): 104%; growth at 10 µM (MDA-MB-435): 102%; growth at 10 µM (SK-MEL-2): 93.3%; growth at 10 µM (SK-MEL-5): 104%; growth at 10 µM (UACC-257): 106%; growth at 10 µM (UACC-62): 103%; growth at 10 µM (OVCAR-5): 106%; growth at 10 µM (NCI/ADR-RES): 110%; growth at 10 µM (786-0): 103%; growth at 10 µM (ACHN): 109%; growth at 10 µM (CAKI-1): 117%; growth at 10 µM (TK-10): 103%; growth at 10 µM (UO-31): 97.1%; growth at 10 µM (PC-3): 97.9%; growth at 10 µM (DU-145): 127%; growth at 10 µM (BT-549): 99.5%; growth at 10 µM (T47D): 92%
CC(=O)Nc1cc(CO)cc(NC(=O)c2ccccc2)c1 | 110 | 85.6 | 110 | 98.7 | 106 | 107 | 103 | 104 | 115 | 50.8 | 110 | 104 | 97.9 | 97.8 | 107 | 109 | 116 | 103 | 111 | 106 | growth at 10 µM (SNB-75): 122%; growth at 10 µM (U-251): 99.4%; growth at 10 µM (Malme-3M): 109%; growth at 10 µM (M14): 109%; growth at 10 µM (MDA-MB-435): 105%; growth at 10 µM (SK-MEL-2): 111%; growth at 10 µM (SK-MEL-5): 105%; growth at 10 µM (UACC-257): 104%; growth at 10 µM (UACC-62): 104%; growth at 10 µM (OVCAR-5): 103%; growth at 10 µM (NCI/ADR-RES): 105%; growth at 10 µM (786-0): 104%; growth at 10 µM (ACHN): 109%; growth at 10 µM (CAKI-1): 98.9%; growth at 10 µM (TK-10): 119%; growth at 10 µM (UO-31): 95.5%; growth at 10 µM (PC-3): 101%; growth at 10 µM (DU-145): 105%; growth at 10 µM (BT-549): 105%; growth at 10 µM (T47D): 103%
CC(=O)Nc1cc(CO)cc(NC(=O)c2ccc(C(=O)NCCCN(C)C)cc2)c1 | 90 | 104 | 104 | 95.4 | 98.2 | 91.7 | 108 | 110 | 92 | 104 | 121 | 112 | 88.4 | 102 | 106 | 100 | 118 | 114 | 110 | 101 | growth at 10 µM (SNB-75): 87.8%; growth at 10 µM (U-251): 107%; growth at 10 µM (Malme-3M): 100%; growth at 10 µM (M14): 98.6%; growth at 10 µM (MDA-MB-435): 103%; growth at 10 µM (SK-MEL-2): 92.9%; growth at 10 µM (SK-MEL-5): 96.4%; growth at 10 µM (UACC-257): 107%; growth at 10 µM (UACC-62): 95.9%; growth at 10 µM (OVCAR-5): 107%; growth at 10 µM (NCI/ADR-RES): 112%; growth at 10 µM (786-0): 102%; growth at 10 µM (ACHN): 108%; growth at 10 µM (CAKI-1): 109%; growth at 10 µM (TK-10): 99%; growth at 10 µM (UO-31): 98.1%; growth at 10 µM (PC-3): 97.9%; growth at 10 µM (DU-145): 115%; growth at 10 µM (BT-549): 98.6%; growth at 10 µM (T47D): 92.9%
